# What was measured:
# [1] = Stability of QC samples of the analytes in rat plasma under storage conditions; format: physicochemical; settings: n = 6
# Procedure: Preparation of quality control (QC) samples with three concentrations (low, medium, and high) of 16, 160, and 3,200 ng/ml for ellagic acid; 1.6, 16, 320 ng/ml for protocatechuic acid, ethyl gallate and 1,2,3,4,6-O-pentagalloylglucose; 40, 400 and 8,000 ng/ml for chebulic acid, gallic acid, corilagin and chebulinic acid and 160, 1,600, 32000 ng/ml for chebulagic acid. Both QC samples and stock solutions were stored in a refrigerator at 4°C.
# Under variable treatment conditions: stored for 12 h at auto-sampler, for 4 hours at room temperature, under three freeze-thaw cycles, and kept at −80°C for 7 days, quality control samples were analyzed to assess the stability of the nine analytes in plasma.
# [2] = Pharmacokinetic study in rats after oral administration of TC extracts (UPLC-MS/MS of plasma); settings: for AUC / AUC(0-inf) / Cmax / MRT / MRT inf / Tmax / half-life: male, Sprague-Dawley, rat, plasma, po, 10 g/kg
# Procedure: UPLC-MS/MS system was used for analysis and monitoring, which consisted primarily of an Agilent 1290 UPLC system (Agilent Technologies, Germany) and an Agilent 6,470 series triple quad (TQ) mass spectrometer (MS) (Agilent Technologies, Singapore) equipped with an electrospray ionization source.
# Separation was carried out on an ACQUITY UPLC® HSS T3 column (2.1 × 100 mm, 1.8 μm), and temperature in the column was kept at 20°C. In the mobile phase, 0.1% formic acid in water and acetonitrile were used as solvents A and B, respectively. Gradient elution was performed as follows: 1%–5% B at 0–3 min; 5%–30% B at 3–4 min; 30%–40% B at 4–8 min; 40%–100% B at 8–9 min; 100%–100% B at 9–12 min. The flow rate was set at 0.3 ml/min and the injection volume was 10 μL.
# Multiple reaction monitoring (MRM) was used for quantitative analysis in negative (−) ionization mode. The mass spectrometric parameters were set as follows: drying gas (N2) temperature was 300°C; gas (N2) flow rate was 7 L/min; atomizer pressure was 35 psi; sheath gas flow was 11 L/min and capillary voltage was 3800 V. The specific mass spectrometric parameters of the precursor ion, product ion, fragmentor, collision energy, and ion modes of the nine compounds and IS are shown in Table 1.
# The plasma sample (100 μl) was sequentially spiked with 20 μl IS solutions (caffeic acid, 1,000 ng/ml); 20 μL methanol, and 10 μl formic acid, then vortex-mixed for 1 min. The mixture was precipitated protein with 1,000 μl methanol by vortex mixing for 3 min. The supernatant was collected into a 1.5 ml clean centrifuge tube after centrifugation at for 10 min 14,000 rpm, and evaporated under a nitrogen stream until dry. After that, the residue was redissolved in 100 μl methanol, vortex-mixed for 3 min, then centrifuged for 10 min at 14,000 rpm. 10 μl analyte was injected into the UPLC-MS/MS system.
# In this study, six of male rats were used, given free access to water, and fasted for 12 h before the experimental period. The TC extracts were dissolved in 0.5% CMC-Na aqueous solution as a suspension at a concentration of 1 g/ml. A dose of 10 g/kg of the suspension was administered to the rats orally, the blood samples of approximately 300 μL were drawn from the fundus venous plexus of rats pre- and post-oral administration at 0.00, 0.08, 0.17, 0.25, 0.50, 0.75, 1, 2, 4, 6, 8, 10, 12, 24, 36, 48, 60, 72, 84, 96, 120, 144 and 168 h, respectively. For analysis, the plasma supernatants collected from the centrifuged plasma were frozen at −80°C after centrifugation for 10 min at 6,000 rpm.
# Data were expressed as mean ± standard deviation (mean ± SD). MassHunter Workstation software (version B.09.00) was quantitatively used to calculate the plasma concentrations of nine analytes. To evaluate the specific pharmacokinetic parameters, DAS Software (DAS 3.0, Medical College of Wannan, China) was used to process the pharmacokinetic results.
# [3] = spiked 16 ng/mL, autosampler for 12 h
# [4] = spiked 16 ng/mL, room temperature for 4 h
# [5] = spiked 16 ng/mL, three freeze-thaw cycles
# [6] = spiked 16 ng/mL, −80°C for 7 days
# [7] = spiked 1.6 ng/mL, autosampler for 12 h
# [8] = spiked 1.6 ng/mL, room temperature for 4 h
# [9] = spiked 1.6 ng/mL, three freeze-thaw cycles
# [10] = spiked 1.6 ng/mL, −80°C for 7 days
# [11] = spiked 320 ng/mL, autosampler for 12 h
# [12] = spiked 320 ng/mL, room temperature for 4 h
# [13] = spiked 320 ng/mL, three freeze-thaw cycles
# [14] = spiked 320 ng/mL, −80°C for 7 days
Compound,AUC [2],AUC(0-inf) [2],Cmax [2],MRT [2],MRT inf [2],Tmax [2],half-life [2],"Measured concentration after storage [1, 3]","Measured concentration after storage [1, 4]","Measured concentration after storage [1, 5]","Measured concentration after storage [1, 6]","Measured concentration after storage [1, 7]","Measured concentration after storage [1, 8]","Measured concentration after storage [1, 9]","Measured concentration after storage [1, 10]","Measured concentration after storage [1, 11]","Measured concentration after storage [1, 12]","Measured concentration after storage [1, 13]","Measured concentration after storage [1, 14]",also measured
"O=C(O[C@@H]1O[C@@H]2COC(=O)c3cc(O)c(O)c(O)c3-c3c(cc(O)c(O)c3O)C(=O)O[C@H]([C@H]1O)[C@@H]2O)c1cc(O)c(O)c(O)c1 [Corilagin, corilagin]",16700 ± 12400 ng·h/mL,17400 ± 12500 ng·h/mL,591 ± 203 ng/mL,53.5 ± 4.12 h,99.4 ± 46.2 h,1.67 ± 0.52 h,26.4 ± 22.2 h,,,,,,,,,,,,,"Measured concentration after storage ([1]; spiked 40 ng/mL, autosampler for 12 h): 38.8 ± 1.2 ng/mL; Measured concentration after storage ([1]; spiked 40 ng/mL, room temperature for 4 h): 39.6 ± 3.0 ng/mL; Measured concentration after storage ([1]; spiked 40 ng/mL, three freeze-thaw cycles): 42.8 ± 2.4 ng/mL; Measured concentration after storage ([1]; spiked 40 ng/mL, −80°C for 7 days): 39.7 ± 2.1 ng/mL; Measured concentration after storage ([1]; spiked 400 ng/mL, autosampler for 12 h): 435.7 ± 34.5 ng/mL; Measured concentration after storage ([1]; spiked 400 ng/mL, room temperature for 4 h): 398.2 ± 34.3 ng/mL; Measured concentration after storage ([1]; spiked 400 ng/mL, three freeze-thaw cycles): 405.3 ± 6.0 ng/mL; Measured concentration after storage ([1]; spiked 400 ng/mL, −80°C for 7 days): 395.6 ± 7.2 ng/mL; Measured concentration after storage ([1]; spiked 8,000 ng/mL, autosampler for 12 h): 7,335.4 ± 704.5 ng/mL; Measured concentration after storage ([1]; spiked 8,000 ng/mL, room temperature for 4 h): 8,930.5 ± 535.3 ng/mL; Measured concentration after storage ([1]; spiked 8,000 ng/mL, three freeze-thaw cycles): 8,802.7 ± 713.0 ng/mL; Measured concentration after storage ([1]; spiked 8,000 ng/mL, −80°C for 7 days): 8,304.6 ± 362.4 ng/mL"
"O=c1oc2c(O)c(O)cc3c(=O)oc4c(O)c(O)cc1c4c23 [Ellagic acid, ellagic acid]",6810 ng·h/mL,7340 ng·h/mL,390 ± 80.5 ng/mL,45.9 ± 8.13 h,56.5 ± 13 h,0.97 ± 0.84 h,8.23 ± 8.95 h,17.6 ± 1.6 ng/mL,17.5 ± 1.7 ng/mL,16.9 ± 1.4 ng/mL,16.8 ± 1.0 ng/mL,,,,,,,,,"Measured concentration after storage ([1]; spiked 160 ng/mL, autosampler for 12 h): 154.8 ± 13.9 ng/mL; Measured concentration after storage ([1]; spiked 160 ng/mL, room temperature for 4 h): 156.3 ± 17.8 ng/mL; Measured concentration after storage ([1]; spiked 160 ng/mL, three freeze-thaw cycles): 171.8 ± 10.5 ng/mL; Measured concentration after storage ([1]; spiked 160 ng/mL, −80°C for 7 days): 163.8 ± 4.3 ng/mL; Measured concentration after storage ([1]; spiked 3,200 ng/mL, autosampler for 12 h): 3,450.0 ± 313.1 ng/mL; Measured concentration after storage ([1]; spiked 3,200 ng/mL, room temperature for 4 h): 3,437.2 ± 188 ng/mL; Measured concentration after storage ([1]; spiked 3,200 ng/mL, three freeze-thaw cycles): 3,438.7 ± 285.7 ng/mL; Measured concentration after storage ([1]; spiked 3,200 ng/mL, −80°C for 7 days): 3,594.0 ± 81.5 ng/mL; Shape of plasma concentration-time curve ([2]; rat plasma, oral TC extracts, Figure 2): double peaks phenomenon"
"CCOC(=O)c1cc(O)c(O)c(O)c1 [Ethyl gallate, ethyl gallate]",16.9 ± 8.28 ng·h/mL,16.9 ± 8.2 ng·h/mL,12.5 ± 4.38 ng/mL,1.55 ± 0.42 h,1.6 ± 0.4 h,0.63 ± 0.26 h,2.08 ± 2.16 h,16.3 ± 2.6 ng/mL,14.6 ± 1.9 ng/mL,13.6 ± 1.2 ng/mL,14.2 ± 0.4 ng/mL,1.7 ± 0.2 ng/mL,1.4 ± 0.1 ng/mL,1.6 ± 0.1 ng/mL,1.6 ± 0.1 ng/mL,323.3 ± 13.8 ng/mL,345.6 ± 14.7 ng/mL,328.6 ± 17.1 ng/mL,307.4 ± 29.5 ng/mL,
"O=C(O)c1ccc(O)c(O)c1 [Protocatechuic acid, protocatechuic acid]",70.8 ± 16.6 ng·h/mL,70.8 ± 16.6 ng·h/mL,24.7 ± 3.27 ng/mL,3.39 ± 0.83 h,3.39 ± 0.83 h,0.54 ± 0.1 h,2.06 ± 0.76 h,14.5 ± 2.0 ng/mL,16.4 ± 0.6 ng/mL,13.9 ± 0.7 ng/mL,13.1 ± 1.2 ng/mL,1.7 ± 0.2 ng/mL,1.6 ± 0.1 ng/mL,1.8 ± 0.1 ng/mL,1.5 ± 0.2 ng/mL,305.9 ± 15.9 ng/mL,297.9 ± 8.4 ng/mL,330.3 ± 18.5 ng/mL,334.2 ± 8.0 ng/mL,
